The text below walks through data of patent US20080319042A1, “Compositions and methods for treatment of liver disease” (priority 2007, published 2008).

Values after ≈ are worked out from the molar mass of the structure shown. Values joined by “and” are separate entries in the source; they are usually repeats but may differ in a detail not shown here. Identical values can stand only once.

In one data set the test system is HCV JFH1. Put plainly: HCV JFH1 infectivity assay (JFH1 Foci Reduction Assay). The class given is cell-based, hepatitis C virus. Particulars: virus preincubated with compound, Huh 7 cells, 48 hr post infection, RD8, RD16, RD17, RD18 as glucosidase hydrolysis products.
A further data set concerns HCV/HIV pseudovirions. Description: microbe, parasite or virus in culture. It counts as cell-based, hepatitis C virus.
Data set [1] deals with hepatitis B surface antigen (HBsAg) production. Put plainly: Anti-HBSAg Assay (Procedure A). It counts as cell-based, hepatitis B virus. The conditions noted are these: 50 μg/ml. The protocol: (§1) The HBV-producing human hepatoblastoma cell line, Hep G2.2.15 was maintained in DMEM supplemented with 10% fetal bovine serum (FBS), 2 mM glutamine, 100 units/ml penicillin, 100 μg/ml streptomycin and 380 μg/ml gentamicin sulfate (G418) at 37° C. under 5% CO2 in air. The Hep G2 parental cells were grown under identical conditions in MEM with Earle's salts without G418.
(§2) Hep G2.2.15 cells (190 μl) were seeded onto microtiter plates at a concentration of 20×10^4 cells/ml. The cells incubated overnight in medium without G418 after which the compound compositions (10 μl) were added. Five 2-fold serial dilutions of extracts or fractions were tested starting at 200 μg/ml final culture concentration. PBS and 3TC (lamivudine) were included as the negative and positive controls, respectively. The treated cells were incubated at 37° C. for 4 days, after which the hepatitis B surface antigen (HBsAg) production in culture supernatants was assayed. The HBsAg released into the culture medium in the presence or absence of test samples was assayed using the BIO-RAD Genetic Systems HBsAg EIA 3.0 kit (Bio-Rad, Redmond, Wash.). This enzyme immunoassay is based on the capture of HBsAg on monoclonal antibody-coated plates. Four- and twelve-fold dilutions of all culture supernatants collected were assayed in triplicate wells of the EIA plate. The percentage inhibition of HBsAg secretion in the presence of the plant samples was calculated against the negative control (PBS).

The subject of another data set is Hep G2.2.15 cells. Put plainly: % Cell Viability in Anti-HBSAg Assay (Procedure A). It counts as cell-based, human. The conditions noted are these: 50 μg/ml. As to the method:
as §1, §2

The test system of the next data set is HCV. The conditions noted are these: cited from earlier work.
The next data set has as its system HBeAg. Description: Anti-HBSAg Assay (Procedure B), HBeAg. The class given is cell-based, hepatitis B virus.
The next data set relates to HBV DNA. Description: Anti-HBV DNA Assay. It counts as cell-based, hepatitis B virus. Particulars: for HBV DNA copies/ml: replicates, listed as HP-S1.
Another data set deals with HBsAg. Put plainly: Anti-HBSAg Assay (Procedure B), HBsAg. It counts as cell-based, hepatitis B virus. As to the method:
The HBV-producing human hepatoblastoma cell line, Hep G2 2.2.15 is maintained in DMEM supplemented with 10% fetal bovine serum (FBS), 2 mM glutamine, 100 units/ml penicillin, 100 μg/ml streptomycin at 37° C. under 5% CO2 in air.
Samples were dissolved in DMSO at the concentration of 20 mg/mL, then further diluted with DMEM medium to the appropriate concentration.
Hep G2 2.2.15 cells (120 μl) were seeded onto 96-well plates at a concentration of 2×10^5 cells/mL. The cells incubated for 72 h in the medium without G418, after which the test samples (120 μl) were added. Five 3-fold serial dilutions of samples were tested. PBS and 3TC (lamivudine) were included as the negative and positive controls, respectively. The treated cells were incubated at 37° C. for 9 days; with the medium with sample being changed each 3 days, after which the culture supernatant was removed for analysis of both the hepatitis B surface antigen (HBsAg) production and hepatitis B DNA expression.
The HBsAg released into the culture medium in the presence or absence of test material was assayed using the kit manufactured by Shanghai Siic Kehua Biotech Co., Ltd (Shanghai, China). This enzyme immunoassay is based on the capture of HBsAg on monoclonal antibody-coated plates. Four- and twelve-fold dilutions of all culture supernatants collected were assayed in triplicate wells of the kit plate. The percentage inhibition of HBsAg secretion in the presence of the compound was calculated against the negative control (PBS). The IC50 values, the dose that inhibited viruses by 50%, were calculated using non-linear regression analysis (percent survival versus concentration).

Setting [2] is: Enzyme Hydrolysis Processing Time 0.5 hours.
The mark [3] stands for this setting: Enzyme Hydrolysis Processing Time 4.0 hours.

As a reminder, the % Inhibition is the drop in the measured response relative to a control, in per cent. The IC50 is the concentration that inhibits the measured activity by half.

With `CC1C(O)CC2C(C(=O)O)=COC(O)C21` (mixture of isomers) [RD-17], the “Estimated IC50 (inhibition of HCV JFH1 infectivity)” value with HCV JFH1 is 17 µg/mL. For the same compound, the “HCV Inhibition at 20 μg/mL” value in the data set with HCV/HIV pseudovirions (setting [2]) was determined as 39.4; in the data set with HCV/HIV pseudovirions (setting [3]) it was 52.5.
The like results for `O=C(C=Cc1ccc(O)cc1)OCC1=CC(O)C2C=COC(O)C12` (mixture of isomers) [RD-18] were, in that order, 26 µg/mL, 46.6 and 56.6.
As for `OCC1=CC(O)C2C=COC(O)C12` (mixture of isomers) [aucubin enzyme hydrolysate, reference compound], in data set [1], the “% Control HBSAg” value worked out at 96% and the “% Inhibition” value came to 4%. Moreover, in the data set on Hep G2.2.15 cells, the “% Cell Viability” value turned out to be 100%.
For `COc1cc2c(c(OC)c1OC)-c1ccc(OC)c(=O)cc1[C@@H](NC(C)=O)CC2` [Colchicine, colchicine], the “effect on disease progression (in words)” value in the data set with HCV (advanced liver disease) was “does not slow the disease progression”.
For the compound `COC(=O)C1=CO[C@@H](O)[C@@H]2C(CO)=CC[C@H]12` [RD-4], the IC50 in the data set with HCV JFH1 (Hepatitis C virus, read-out: Estimated IC50 (inhibition of HCV JFH1 infectivity)) was 22 µg/mL (≈ 97.2 µM). In the data set on HCV/HIV pseudovirions (Hepatitis C virus, Huh-7, read-out: HCV Inhibition at 20 μg/mL), the inhibition at 20 µg/mL came out at 73.2%.
`COC(=O)C1=CO[C@@H](O[C@@H]2O[C@H](CO)[C@@H](O)[C@H](O)[C@H]2O)[C@H]2[C@@H]1[C@H](O)[C@H](O)[C@]2(C)O` [lamiridoside]: the “HBeAg Ave” value in the data set on HBeAg (12.5 μg/mL) was determined as 1.369; in the data set on HBeAg (25 μg/mL) it was 1.512; in the data set with HBeAg (50 μg/mL), 1.642; in the data set with HBeAg (100 μg/mL) it was 1.558; in the data set with HBeAg (200 μg/mL) it was 1.450. For the same compound, the “HBeAg Inhibition %” value in the data set on HBeAg (12.5 μg/mL), in the data set on HBeAg (25 μg/mL), in the data set with HBeAg (50 μg/mL), in the data set with HBeAg (100 μg/mL) and in the data set with HBeAg (200 μg/mL) was 0% throughout. Besides, the “HBeAg OD1” value amounted to 1.509 in the data set on HBeAg (12.5 μg/mL); 1.558 with HBeAg (25 μg/mL); 1.774 in the data set on HBeAg (50 μg/mL); 1.607 in the data set with HBeAg (100 μg/mL); 1.095 in the data set on HBeAg (200 μg/mL). Moreover, the “HBeAg OD2” value worked out at 1.254 in the data set with HBeAg (12.5 μg/mL); 1.488 in the data set on HBeAg (25 μg/mL); 1.669 with HBeAg (50 μg/mL); 1.502 in the data set on HBeAg (100 μg/mL); 1.634 with HBeAg (200 μg/mL). In addition, the “HBeAg OD3” value in the data set with HBeAg (12.5 μg/mL) was 1.345; in the data set on HBeAg (25 μg/mL), 1.49; in the data set with HBeAg (50 μg/mL) it was 1.482; in the data set with HBeAg (100 μg/mL) it was 1.565; in the data set on HBeAg (200 μg/mL), 1.621. Further, the “HBV DNA Average” value with HBV DNA (12.5 μg/ml) is 1.18 × 10^6 copies/ml; in the data set with HBV DNA (25 μg/ml), 1.64 × 10^6 copies/ml; with HBV DNA (50 μg/ml), 1.16 × 10^6 copies/ml; with HBV DNA (100 μg/ml), 1.02 × 10^6 copies/ml; in the data set on HBV DNA (200 μg/ml) it was 8.40 × 10^5 copies/ml. Further, the “HBV DNA Inhibit” value is on record as 0.00% in the data set on HBV DNA (12.5 μg/ml); 0.00% with HBV DNA (25 μg/ml); 0.85% with HBV DNA (50 μg/ml); 12.80% in the data set on HBV DNA (100 μg/ml); 28.20% with HBV DNA (200 μg/ml). In addition, the “HBV DNA copies/ml” value in the data set with HBV DNA (12.5 μg/ml) was 1.32E+06 copies/ml and 9.64E+05 copies/ml and 1.26E+06 copies/ml; in the data set with HBV DNA (25 μg/ml) it was 1.95E+06 copies/ml and 1.30E+06 copies/ml and 1.67E+06 copies/ml; with HBV DNA (50 μg/ml), 1.26E+06 copies/ml and 1.14E+06 copies/ml and 1.07E+06 copies/ml; in the data set with HBV DNA (100 μg/ml), 7.78E+05 copies/ml and 7.93E+05 copies/ml and 1.50E+06 copies/ml; in the data set on HBV DNA (200 μg/ml), 1.17E+06 copies/ml and 5.77E+05 copies/ml and 7.74E+05 copies/ml. Moreover, the “Anti-HBV DNA activity (in words)” value in the data set on HBV DNA (Table 3) was “inactive”. In addition, in data set [1], the “% Control HBSAg” value is recorded as 96%. Besides, the “% Inhibition” value in data set [1] is reported as 4%. Also, in the data set on Hep G2.2.15 cells, the “% Cell Viability” value came to 100%. Moreover, the “inhibition of HCV/HIV entry” value in the data set on HCV/HIV pseudovirions (100 μg/mL, FIG. 1) is “inactive”. In addition, the “anti-hepatitis C virus activity (in words)” value in the data set with HCV/HIV pseudovirions (FIG. 1) is “inactive”. The “HBsAg Ave.” value in the data set with HBsAg (12.5 μg/mL) is 1.262; with HBsAg (25 μg/mL) it was 1.474; with HBsAg (50 μg/mL), 1.473; in the data set on HBsAg (100 μg/mL) it was 1.507; with HBsAg (200 μg/mL), 1.527. In addition, the “HBsAg Inhibition %” value in the data set with HBsAg (12.5 μg/mL), in the data set with HBsAg (25 μg/mL), in the data set on HBsAg (50 μg/mL), in the data set on HBsAg (100 μg/mL) and in the data set with HBsAg (200 μg/mL) was 0% throughout. Also, the “HBsAg OD1” value is 1.305 in the data set on HBsAg (12.5 μg/mL); 1.604 in the data set on HBsAg (25 μg/mL); 1.659 with HBsAg (50 μg/mL); 1.584 in the data set with HBsAg (100 μg/mL); 1.546 in the data set with HBsAg (200 μg/mL). Further, the “HBsAg OD2” value with HBsAg (12.5 μg/mL) is recorded as 1.149; in the data set on HBsAg (25 μg/mL), 1.418; with HBsAg (50 μg/mL) it was 1.504; in the data set on HBsAg (100 μg/mL) it was 1.469; with HBsAg (200 μg/mL) it was 1.504. Moreover, the “HBsAg OD3” value in the data set on HBsAg (12.5 μg/mL) is recorded as 1.331; with HBsAg (25 μg/mL), 1.401; in the data set on HBsAg (50 μg/mL), 1.255; in the data set on HBsAg (100 μg/mL), 1.468; with HBsAg (200 μg/mL), 1.531. The “anti-HBSAg activity (in words)” value in the data set on HBsAg (Tables 1-2) is “inactive”.
On to alpha-interferon, for which the “patients with a pronounced effect in reducing HCV to a very low level in the blood” value in the data set on HCV (chronic hepatitis C patients) is given as “about 25%”.
